Laboratory results as given in ChEMBL document CHEMBL1201862, “PubChem BioAssay data set” (2004).
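Five concentrations, 48 hours, 96-well plates. The concentration for 50% growth inhibition is given as GI50.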 Active and inactive are the calls of the source. Rule as the data show it: active = GI50 up to about 1.1 µM and inactive = higher.

Assays:
Test in all cases: NCI-60 cell line screen, 48 h
[1] = tested on: MCF7
[2] = tested on: SN12C
[3] = tested on: HL-60
[4] = tested on: K562
[5] = tested on: RXF 393
[6] = tested on: UACC-62
[7] = tested on: OVCAR-4
[8] = tested on: Malme-3M
[9] = tested on: MDA-MB-231
[10] = tested on: MDA-MB-435
[11] = tested on: NCI-H23
[12] = tested on: EKVX
[13] = tested on: SNB-19
[14] = tested on: U-251
[15] = tested on: ACHN
[16] = tested on: A498
[17] = tested on: SK-MEL-28
[18] = tested on: NCI-H460
[19] = tested on: SK-MEL-5
[20] = tested on: UACC-257

Measured: GI50

O=C(O)/C=C(/C(=O)O)C12CCN3CC4=CCOC5CC(=O)NC1C5C4CC32 (stereo not given)
inactive: [1] > 100 µM | [2] > 100 µM | [3] > 100 µM | [4] > 100 µM | [5] > 100 µM | [6] > 100 µM | [7] > 100 µM | [8] > 100 µM | [9] > 100 µM | [10] > 100 µM | [11] > 100 µM | [12] > 100 µM | [13] > 100 µM | [14] > 100 µM | [15] > 100 µM | [16] > 100 µM | [17] > 100 µM | [18] > 100 µM | [19] > 100 µM | [20] > 100 µM

CCCCCC(=O)NC(=S)Nc1nnn[nH]1
inactive: [1] > 100 µM | [2] > 100 µM | [3] > 100 µM | [4] > 100 µM | [5] > 100 µM | [6] > 100 µM | [7] > 100 µM | [8] > 100 µM | [9] > 100 µM | [10] > 100 µM | [11] > 100 µM | [12] > 100 µM | [13] > 100 µM | [14] > 100 µM | [15] > 10 µM | [16] > 100 µM | [17] > 100 µM | [18] > 100 µM | [19] > 100 µM | [20] > 100 µM

CCOC(=O)c1c(-c2ccccc2)c(OC)cn1C
inactive: [1] > 10 µM | [2] > 10 µM | [3] > 10 µM | [4] > 10 µM | [5] > 10 µM | [6] > 10 µM | [7] > 10 µM | [8] > 10 µM | [9] > 10 µM | [10] > 10 µM | [11] > 10 µM | [12] > 10 µM | [13] > 10 µM | [14] > 10 µM | [15] > 10 µM | [16] > 10 µM | [17] > 10 µM | [18] > 10 µM | [19] > 10 µM | [20] > 10 µM

C[C@H](C(O)CC(=O)C(C)(C)O)[C@H]1CC[C@@]2(C)[C@@H]3CC[C@H]4C(C)(C)[C@@H](OC5OC(COC6OC(CO)C(O)C(O)C6O)C(O)C(O)C5O)CC[C@]4(C)C3=CC[C@]12C (stereo not given in full)
inactive: [1] > 100 µM | [2] > 100 µM | [3] > 100 µM | [4] > 100 µM | [5] > 100 µM | [6] > 100 µM | [7] > 100 µM | [8] > 100 µM | [9] > 100 µM | [10] > 100 µM | [11] > 100 µM | [12] > 100 µM | [13] > 100 µM | [14] > 100 µM | [15] > 100 µM | [16] > 100 µM | [17] > 100 µM | [18] > 100 µM | [19] > 100 µM | [20] > 100 µM

O=C1/C(=C/c2ccccc2)N=C(c2ccccc2)N1n1c(-c2ccccc2)nc2ccccc2c1=O
inactive: [1] 34 µM | [2] > 100 µM | [3] 33.3 µM | [4] 61.7 µM | [5] 86.5 µM | [6] 31 µM | [7] 60 µM | [8] > 100 µM | [9] > 100 µM | [10] 87.9 µM | [11] 56.1 µM | [12] 48.6 µM | [13] 52.8 µM | [14] 41.8 µM | [15] 89.1 µM | [16] 92 µM | [17] 74.3 µM | [18] 58.9 µM | [19] 38 µM | [20] > 100 µM
